Data as given in patent US10131652B2, “Pyrimidinyloxy benzene derivatives as herbicides” (E. I. DU PONT DE NEMOURS AND COMPANY, priority 2014, dated 2018).
Read-outs that look alike come from different tables or passages of the source.

Experiments:
Assay in all cases: Test E pre-/postemergence plant response
Type in all cases: in vivo
[1] = tested on: spring wheat (Triticum aestivum); conditions: post-emergence, Postemergence, scale 0 to 100, read-out: Plant response rating, Wheat, Spring
Outline: (§1)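 Pre-emergence: seeds sown in silt loam soil and sprayed with test chemicals in a non-phytotoxic solvent/surfactant mix. Post-emergence: plants at 2–18 cm (1- to 4-leaf stage) in peat/vermiculite medium treated with the same formulation. Visual rating versus controls after 7–21 days, 0 (no effect) to 100 (complete control).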

[2] = tested on: field poppy (Papaver rhoeas); conditions: scale 0 to 100, read-out: Plant response rating, Field Poppy; for pest or weed control at 16 g/ha: 16 g ai/ha; for pest or weed control at 31 g/ha: 31 g ai/ha; for pest or weed control at 62 g/ha: 62 g ai/ha; for pest or weed control at 125 g/ha: 125 g ai/ha
Outline: as §1

[3] = tested on: chamomile (scentless chamomile, Matricaria inodora); conditions: Tripleurospermum inodorum, scale 0 to 100, read-out: Plant response rating, Chamomile; for pest or weed control at 16 g/ha: 16 g ai/ha; for pest or weed control at 31 g/ha: 31 g ai/ha; for pest or weed control at 62 g/ha: 62 g ai/ha; for pest or weed control at 125 g/ha: 125 g ai/ha
Outline: as §1

[4] = tested on: chickweed (common chickweed, Stellaria media); conditions: scale 0 to 100, read-out: Plant response rating, Chickweed; for pest or weed control at 16 g/ha: 16 g ai/ha; for pest or weed control at 31 g/ha: 31 g ai/ha; for pest or weed control at 62 g/ha: 62 g ai/ha; for pest or weed control at 125 g/ha: 125 g ai/ha
Outline: as §1

[5] = tested on: wild buckwheat (Polygonum convolvulus); conditions: Fallopia convolvulus, scale 0 to 100, read-out: Plant response rating, Buckwheat, Wild; for pest or weed control at 16 g/ha: 16 g ai/ha; for pest or weed control at 31 g/ha: 31 g ai/ha; for pest or weed control at 62 g/ha: 62 g ai/ha; for pest or weed control at 125 g/ha: 125 g ai/ha
Outline: as §1

[6] = tested on: wild mustard (Sinapis arvensis); conditions: Brassica, scale 0 to 100, read-out: Plant response rating, Mustard, Wild; for pest or weed control at 16 g/ha: 16 g ai/ha; for pest or weed control at 31 g/ha: 31 g ai/ha; for pest or weed control at 62 g/ha: 62 g ai/ha; for pest or weed control at 125 g/ha: 125 g ai/ha
Outline: as §1

[7] = tested on: field violet (Viola arvensis); conditions: scale 0 to 100, read-out: Plant response rating, Field Violet; for pest or weed control at 16 g/ha: 16 g ai/ha; for pest or weed control at 31 g/ha: 31 g ai/ha; for pest or weed control at 62 g/ha: 62 g ai/ha; for pest or weed control at 125 g/ha: 125 g ai/ha
Outline: as §1

[8] = tested on: galium (catchweed bedstraw, Galium aparine); conditions: scale 0 to 100, read-out: Plant response rating, Galium; for pest or weed control at 16 g/ha: 16 g ai/ha; for pest or weed control at 31 g/ha: 31 g ai/ha; for pest or weed control at 62 g/ha: 62 g ai/ha; for pest or weed control at 125 g/ha: 125 g ai/ha
Outline: as §1

[9] = tested on: oilseed rape (Brassica napus); conditions: scale 0 to 100, read-out: Plant response rating, Oilseed Rape; for plant injury at 16 g/ha: 16 g ai/ha; for plant injury at 31 g/ha: 31 g ai/ha; for plant injury at 62 g/ha: 62 g ai/ha; for plant injury at 125 g/ha: 125 g ai/ha
Outline: as §1

[10] = tested on: speedwell (bird's-eye speedwell, Veronica persica); conditions: scale 0 to 100, read-out: Plant response rating, Speedwell; for pest or weed control at 16 g/ha: 16 g ai/ha; for pest or weed control at 62 g/ha: 62 g ai/ha; for pest or weed control at 125 g/ha: 125 g ai/ha
Outline: as §1

[11] = tested on: spring barley (Hordeum vulgare); conditions: post-emergence, Postemergence
Outline: as §1

FC(F)c1cc(-c2ccccc2Oc2ncc(Cl)cn2)no1 [Compound 35, 5-chloro-2-[2-[5-(difluoromethyl)-3-isoxazolyl]phenoxy]pyrimidine]
plant injury at 16 g/ha ([1]; 16 g ai/ha): 0% | plant injury at 31 g/ha ([1]; 31 g ai/ha): 10% | plant injury at 62 g/ha ([1]; 62 g ai/ha): 25% | plant injury at 125 g/ha ([1]; 125 g ai/ha): 40% | pest or weed control at 16 g/ha ([2]; post-emergence, Postemergence): 70% | pest or weed control at 31 g/ha ([2]; post-emergence, Postemergence): 75% | pest or weed control at 62 g/ha ([2]; post-emergence, Postemergence): 80% | pest or weed control at 125 g/ha ([2]; post-emergence, Postemergence): 100% | pest or weed control at 16 g/ha ([2]; pre-emergence, Preemergence): 75% | pest or weed control at 31 g/ha ([2]; pre-emergence, Preemergence): 80% | pest or weed control at 62 g/ha ([2]; pre-emergence, Preemergence): 90% | pest or weed control at 125 g/ha ([2]; pre-emergence, Preemergence): 90% | pest or weed control at 16 g/ha ([3]; post-emergence, Postemergence): 5% | pest or weed control at 31 g/ha ([3]; post-emergence, Postemergence): 5% | pest or weed control at 62 g/ha ([3]; post-emergence, Postemergence): 5% | pest or weed control at 125 g/ha ([3]; post-emergence, Postemergence): 10% | pest or weed control at 16 g/ha ([3]; pre-emergence, Preemergence): 5% | pest or weed control at 31 g/ha ([3]; pre-emergence, Preemergence): 10% | pest or weed control at 62 g/ha ([3]; pre-emergence, Preemergence): 70% | pest or weed control at 125 g/ha ([3]; pre-emergence, Preemergence): 70% | pest or weed control at 16 g/ha ([4]; post-emergence, Postemergence): 65% | pest or weed control at 31 g/ha ([4]; post-emergence, Postemergence): 75% | pest or weed control at 62 g/ha ([4]; post-emergence, Postemergence): 75% | pest or weed control at 125 g/ha ([4]; post-emergence, Postemergence): 100% | pest or weed control at 16 g/ha ([4]; pre-emergence, Preemergence): 55% | pest or weed control at 31 g/ha ([4]; pre-emergence, Preemergence): 100% | pest or weed control at 62 g/ha ([4]; pre-emergence, Preemergence): 95% | pest or weed control at 125 g/ha ([4]; pre-emergence, Preemergence): 100% | pest or weed control at 16 g/ha ([5]; post-emergence, Postemergence): 75% | pest or weed control at 31 g/ha ([5]; post-emergence, Postemergence): 85% | pest or weed control at 62 g/ha ([5]; post-emergence, Postemergence): 90% | pest or weed control at 125 g/ha ([5]; post-emergence, Postemergence): 95% | pest or weed control at 16 g/ha ([5]; pre-emergence, Preemergence): 60% | pest or weed control at 31 g/ha ([5]; pre-emergence, Preemergence): 75% | pest or weed control at 62 g/ha ([5]; pre-emergence, Preemergence): 90% | pest or weed control at 125 g/ha ([5]; pre-emergence, Preemergence): 100% | pest or weed control at 16 g/ha ([6]; post-emergence, Postemergence): 90% | pest or weed control at 31 g/ha ([6]; post-emergence, Postemergence): 85% | pest or weed control at 62 g/ha ([6]; post-emergence, Postemergence): 85% | pest or weed control at 125 g/ha ([6]; post-emergence, Postemergence): 100% | pest or weed control at 16 g/ha ([6]; pre-emergence, Preemergence): 20% | pest or weed control at 31 g/ha ([6]; pre-emergence, Preemergence): 60% | pest or weed control at 62 g/ha ([6]; pre-emergence, Preemergence): 95% | pest or weed control at 125 g/ha ([6]; pre-emergence, Preemergence): 95% | pest or weed control at 16 g/ha ([7]; post-emergence, Postemergence): 60% | pest or weed control at 31 g/ha ([7]; post-emergence, Postemergence): 65% | pest or weed control at 62 g/ha ([7]; post-emergence, Postemergence): 75% | pest or weed control at 125 g/ha ([7]; post-emergence, Postemergence): 75% | pest or weed control at 16 g/ha ([7]; pre-emergence, Preemergence): 15% | pest or weed control at 31 g/ha ([7]; pre-emergence, Preemergence): 70% | pest or weed control at 62 g/ha ([7]; pre-emergence, Preemergence): 90% | pest or weed control at 125 g/ha ([7]; pre-emergence, Preemergence): 100% | pest or weed control at 16 g/ha ([8]; post-emergence, Postemergence): 70% | pest or weed control at 31 g/ha ([8]; post-emergence, Postemergence): 80% | pest or weed control at 62 g/ha ([8]; post-emergence, Postemergence): 75% | pest or weed control at 125 g/ha ([8]; post-emergence, Postemergence): 85% | pest or weed control at 16 g/ha ([8]; pre-emergence, Preemergence): 25% | pest or weed control at 31 g/ha ([8]; pre-emergence, Preemergence): 55% | pest or weed control at 62 g/ha ([8]; pre-emergence, Preemergence): 100% | pest or weed control at 125 g/ha ([8]; pre-emergence, Preemergence): 100% | plant injury at 16 g/ha ([9]; post-emergence, Postemergence): 70% | plant injury at 31 g/ha ([9]; post-emergence, Postemergence): 80% | plant injury at 62 g/ha ([9]; post-emergence, Postemergence): 95% | plant injury at 125 g/ha ([9]; post-emergence, Postemergence): 100% | plant injury at 16 g/ha ([9]; pre-emergence, Preemergence): 60% | plant injury at 31 g/ha ([9]; pre-emergence, Preemergence): 95% | plant injury at 62 g/ha ([9]; pre-emergence, Preemergence): 100% | plant injury at 125 g/ha ([9]; pre-emergence, Preemergence): 100% | pest or weed control at 16 g/ha ([10]; post-emergence, Postemergence): 75% | pest or weed control at 31 g/ha ([10]; post-emergence, 31 g ai/ha, Postemergence): 100% | pest or weed control at 62 g/ha ([10]; post-emergence, Postemergence): 100% | pest or weed control at 125 g/ha ([10]; post-emergence, Postemergence): 100% | pest or weed control at 16 g/ha ([10]; pre-emergence, Preemergence): 100% | pest or weed control at 62 g/ha ([10]; pre-emergence, Preemergence): 100% | pest or weed control at 125 g/ha ([10]; pre-emergence, Preemergence): 100% | plant injury at 16 g/ha ([11]; 16 g ai/ha, scale 0 to 100, read-out: Plant response rating, Barley, Spring): 5% | plant injury at 31 g/ha ([11]; 31 g ai/ha, scale 0 to 100, read-out: Plant response rating, Barley, Spring): 5% | plant injury at 62 g/ha ([11]; 62 g ai/ha, scale 0 to 100, read-out: Plant response rating, Barley, Spring): 10% | plant injury at 125 g/ha ([11]; 125 g ai/ha, scale 0 to 100 (0 no effect, 100 complete control), read-out: Plant response rating, Barley, Spring): 25%
